Biological target: T1, human ROCKα/ROCKII mix (Homo sapiens, UniProt O75116)
T1 construct: purchased Upstate Biotechnology 14-451
Assay: ROCK inhibition, fluorescence polarization (FP) assay with ROCK IMAP Kit
Assay type: biochemical
Conditions: Table 1, compounds of Formula IV20
Experimental: The compounds were tested for inhibition of human ROCKα/ROCKII mix.
The inhibition assays were performed with a fluorescence polarization (FP) assay using the commercially available ROCK IMAP Kit from Molecular Devices (Product ID. No. R8093), essentially in accordance with the protocol supplied by the manufacturer. […] The enzyme mix ROCKα/ROCKII was obtained from Upstate Biotechnology (Product ID No 14-451).
In summary, all compounds were screened in the wells of a 384 well plate for enzymatic inhibition with concentrations varying from 100 μM to 0.3 nM using a stepwise 3 (or 2)-fold dilution.
To perform the assay, 1 μl of a solution of the compound to be tested in DMSO (at each concentration) was added to 2 μl of a solution of the enzyme in 10 mM Tris-HCl, 10 mM MgCl2, 0.1% BSA, 0.05% NaN3, pH 7.2. The final concentration of the enzyme was 2.6 nM.
After incubating for 30 minutes at RT, 2 μl of a mixture of ATP and the protein substrate in 10 mM Tris-HCl, 10 mM MgCl2, 0.1% BSA, 0.05% NaN3, pH 7.2 was added. The final concentration of the ATP was 10 μM and final concentration of protein substrate was 0.2 μM.
After incubating for 60 minutes at RT, 12 μl of the IMAP Binding Solution (mix of the IMAP Binding Buffer A (1×) and the IMAP Binding Reagent (from the ROCK IMAP kit)) was added.
The mixture thus obtained (total volume: 17 μl) was incubated for 60 minutes at RT, upon which the fluorescence polarization was measured using an automated plate reader (Perkin Elmer, Model Envision 2100-0010 HTS) with FP filters: excitation filter FITC FP 480 and emission filters FITC FP P-pol 535 and FITC FP S-pol 535 (Perkin-Elmer). The results were fitted to a curve using the XL-Fit algorithm and IC50 values were calculated for each fitted curve, again using the XL-Fit algorithm.

T1 sequence (O75116 whole entry): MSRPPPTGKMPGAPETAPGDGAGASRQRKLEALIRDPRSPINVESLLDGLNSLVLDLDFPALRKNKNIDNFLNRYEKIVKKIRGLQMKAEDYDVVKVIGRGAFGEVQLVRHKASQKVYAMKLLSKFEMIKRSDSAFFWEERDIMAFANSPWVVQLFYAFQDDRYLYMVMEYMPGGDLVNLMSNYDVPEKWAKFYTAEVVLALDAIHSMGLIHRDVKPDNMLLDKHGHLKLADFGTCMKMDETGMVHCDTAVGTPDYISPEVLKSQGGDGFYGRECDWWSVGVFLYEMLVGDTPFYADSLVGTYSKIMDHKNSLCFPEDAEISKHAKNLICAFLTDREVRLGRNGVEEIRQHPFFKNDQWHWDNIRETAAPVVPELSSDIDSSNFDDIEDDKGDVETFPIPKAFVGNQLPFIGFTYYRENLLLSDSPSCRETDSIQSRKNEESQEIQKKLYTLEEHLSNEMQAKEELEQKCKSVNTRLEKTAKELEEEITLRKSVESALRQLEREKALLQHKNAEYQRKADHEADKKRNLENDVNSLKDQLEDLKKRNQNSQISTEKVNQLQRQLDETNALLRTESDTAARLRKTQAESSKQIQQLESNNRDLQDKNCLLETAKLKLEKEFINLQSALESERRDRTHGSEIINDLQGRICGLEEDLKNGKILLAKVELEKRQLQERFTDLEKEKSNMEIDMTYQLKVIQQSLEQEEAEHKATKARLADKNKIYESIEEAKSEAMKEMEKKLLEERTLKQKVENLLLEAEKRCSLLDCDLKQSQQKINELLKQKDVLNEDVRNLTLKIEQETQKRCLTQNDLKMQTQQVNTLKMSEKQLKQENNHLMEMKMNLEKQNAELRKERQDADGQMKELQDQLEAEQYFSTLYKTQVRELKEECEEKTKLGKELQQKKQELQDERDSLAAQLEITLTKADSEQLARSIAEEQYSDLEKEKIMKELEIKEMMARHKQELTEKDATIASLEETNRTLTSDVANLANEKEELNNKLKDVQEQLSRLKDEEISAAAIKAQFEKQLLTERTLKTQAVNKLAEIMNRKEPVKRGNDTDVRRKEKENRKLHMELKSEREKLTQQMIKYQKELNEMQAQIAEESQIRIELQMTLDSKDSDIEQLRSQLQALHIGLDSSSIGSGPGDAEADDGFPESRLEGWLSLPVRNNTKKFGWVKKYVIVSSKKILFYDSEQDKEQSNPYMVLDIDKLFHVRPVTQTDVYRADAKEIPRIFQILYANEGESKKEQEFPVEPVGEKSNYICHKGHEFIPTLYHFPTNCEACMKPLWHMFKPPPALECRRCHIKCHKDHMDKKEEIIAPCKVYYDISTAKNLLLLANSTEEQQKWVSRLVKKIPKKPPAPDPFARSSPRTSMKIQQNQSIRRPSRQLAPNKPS

IC50 | Compound
< 0.5 µM | 4-[1-amino-2-(1-methyl-piperidin-1-yl)-2-oxo-ethyl]-N-pyridin-4-yl-benzamide [Compound 26]
< 0.5 µM | NC(C(=O)NCc1ccccc1)c1ccc(C(=O)Nc2ccncc2)cc1 (stereo not shown) [Compound 1]
< 0.5 µM | CC(NC(=O)C(N)c1ccc(C(=O)Nc2ccncc2)cc1)c1ccccc1 (stereo not shown) [Compound 2, 4-[amino-(1-phenyl-ethylcarbamoyl)-methyl]-N-pyridin-4-yl-benzamide]
< 0.5 µM | CN(Cc1ccccc1)C(=O)C(N)c1ccc(C(=O)Nc2ccncc2)cc1 (stereo not shown) [Compound 3, 4-[amino-(benzyl-methyl-carbamoyl)-methyl]-N-pyridin-4-yl-benzamide]
< 0.5 µM | CCC(NC(=O)C(N)c1ccc(C(=O)Nc2ccncc2)cc1)c1ccccc1 (stereo not shown) [Compound 4, 4-[amino-(1-phenyl-propylcarbamoyl)-methyl]-N-pyridin-4-yl-benzamide]
0.5 to 5 µM | CC[C@H](NC(=O)C(N)c1ccc(C(=O)Nc2ccncc2)cc1)c1ccccc1 (stereo partly drawn) [Compound 5, 4-[amino-(1-(S)-phenyl-propylcarbamoyl)-methyl]-N-pyridin-4-yl-benzamide]
< 0.5 µM | NC(C(=O)NCc1ccccc1Cl)c1ccc(C(=O)Nc2ccncc2)cc1 (stereo not shown) [Compound 6, 4-[amino-(2-chloro-benzylcarbamoyl)-methyl]-N-pyridin-4-yl-benzamide]
< 0.5 µM | NC(C(=O)NCc1cccc(Cl)c1)c1ccc(C(=O)Nc2ccncc2)cc1 (stereo not shown) [Compound 7, 4-[amino-(3-chloro-benzylcarbamoyl)-methyl]-N-pyridin-4-yl-benzamide]
< 0.5 µM | COc1ccc(CNC(=O)C(N)c2ccc(C(=O)Nc3ccncc3)cc2)cc1 (stereo not shown) [Compound 8, 4-[amino-(4-methoxy-benzylcarbamoyl)-methyl]-N-pyridin-4-yl-benzamide]
< 0.5 µM | COc1ccccc1CNC(=O)C(N)c1ccc(C(=O)Nc2ccncc2)cc1 (stereo not shown) [Compound 9, 4-(amino-(2-methoxy-benzylcarbamoyl)-methyl]-N-pyridin-4-yl-benzamide]
0.5 to 5 µM | NC(C(=O)NCc1ccccn1)c1ccc(C(=O)Nc2ccncc2)cc1 (stereo not shown) [Compound 10, 4-{amino-[(pyridin-2-ylmethyl)-carbamoyl]-methyl}-N-pyridin-4-yl-benzamide]
0.5 to 5 µM | NC(C(=O)NCc1ccncc1)c1ccc(C(=O)Nc2ccncc2)cc1 (stereo not shown) [Compound 11, 4-{amino-[(pyridin-4-ylmethyl)-carbamoyl]-methyl}-N-pyridin-4-yl-benzamide]
< 0.5 µM | NC(C(=O)NCc1ccco1)c1ccc(C(=O)Nc2ccncc2)cc1 (stereo not shown) [Compound 12, 4-{amino-[(furan-2-ylmethyl)-carbamoyl]-methyl}-N-pyridin-4-yl-benzamide]
< 0.5 µM | NC(C(=O)N1CCc2ccccc2C1)c1ccc(C(=O)Nc2ccncc2)cc1 (stereo not shown) [Compound 13, 4-[1-amino-2-(3,4-dihydro-1H-isoquinolin-2-yl)-2-oxo-ethyl]-N-pyridin-4-yl-benzamide]
< 0.5 µM | NC(C(=O)NCCc1ccccc1)c1ccc(C(=O)Nc2ccncc2)cc1 (stereo not shown) [Compound 14, 4-(amino-phenethylcarbamoyl-methyl)-N-pyridin-4-yl-benzamide]
< 0.5 µM | NC(C(=O)NC1Cc2ccccc2C1)c1ccc(C(=O)Nc2ccncc2)cc1 (stereo not shown) [Compound 15, 4-[amino-(indan-2-ylcarbamoyl)-methyl]-N-pyridin-4-yl-benzamide]
< 0.5 µM | NC(C(=O)NCCc1ccc(F)cc1)c1ccc(C(=O)Nc2ccncc2)cc1 (stereo not shown) [Compound 16, 4-{amino-[2-(4-fluoro-phenyl)ethylcarbamoyl]-methyl}-N-pyridin-4-yl-benzamide]
< 0.5 µM | NC(C(=O)NCCc1cccs1)c1ccc(C(=O)Nc2ccncc2)cc1 (stereo not shown) [Compound 17, 4-[amino-(2-thiophen-2-yl-ethylcarbamoyl)-methyl]-N-pyridin-4-yl-benzamide]
0.5 to 5 µM | NC(C(=O)NCCn1cccn1)c1ccc(C(=O)Nc2ccncc2)cc1 (stereo not shown) [Compound 18, 4-[amino-(2-pyrazol-1-yl-ethylcarbamoyl)-methyl]-N-pyridin-4-yl-benzamide]
0.5 to 5 µM | NC(C(=O)NCCn1ccnc1)c1ccc(C(=O)Nc2ccncc2)cc1 (stereo not shown) [Compound 19, 4-[amino-(2-imidazol-1-yl-ethylcarbamoyl)-methyl]-N-pyridin-4-yl-benzamide]

IC50 | Compound
0.5 to 5 µM | NC(C(=O)Nc1ccccc1)c1ccc(C(=O)Nc2ccncc2)cc1 (stereo not shown) [Compound 20, 4-(amino-phenylcarbamoyl-methyl)-N-pyridin-4-yl-benzamide]
< 0.5 µM | COc1ccc(NC(=O)C(N)c2ccc(C(=O)Nc3ccncc3)cc2)cc1 (stereo not shown) [Compound 21]
0.5 to 5 µM | CCNC(=O)C(N)c1ccc(C(=O)Nc2ccncc2)cc1 (stereo not shown) [Compound 22, 4-(amino-ethylcarbamoyl-methyl)-N-pyridin-4-yl-benzamide]
0.5 to 5 µM | CC(C)C(C)NC(=O)C(N)c1ccc(C(=O)Nc2ccncc2)cc1 (stereo not shown) [Compound 23, 4-[amino-(1,2-dimethyl-propylcarbamoyl)-methyl]-N-pyridin-4-yl-benzamide]
0.5 to 5 µM | CCC(C)(C)NC(=O)C(N)c1ccc(C(=O)Nc2ccncc2)cc1 (stereo not shown) [Compound 24, 4-[amino-(1,1-dimethyl-propylcarbamoyl)-methyl]-N-pyridin-4-yl-benzamide]
0.5 to 5 µM | NC(C(=O)NCC1CC1)c1ccc(C(=O)Nc2ccncc2)cc1 (stereo not shown) [Compound 25, 4-[amino-(cyclopropylmethyl-carbamoyl)-methyl]-N-pyridin-4-yl-benzamide]
< 0.5 µM | CC1CC(C)CN(C(=O)C(N)c2ccc(C(=O)Nc3ccncc3)cc2)C1 (stereo not shown) [Compound 27, 4-[1-amino-2-(3,5-dimethyl-piperidin-1-yl)-2-oxo-ethyl]-N-pyridin-4-yl-benzamide]
0.5 to 5 µM | NC(C(=O)N1CCC(c2ccccc2)CC1)c1ccc(C(=O)Nc2ccncc2)cc1 (stereo not shown) [Compound 28, 4-[1-amino-2-(4-phenyl-piperidin-1-yl)-2-oxo-ethyl]-N-pyridin-4-yl-benzamide]
0.5 to 5 µM | NC(C(=O)N1CC=C(c2ccc(F)cc2)CC1)c1ccc(C(=O)Nc2ccncc2)cc1 (stereo not shown) [Compound 29, 4-{1-amino-2-[4-(4-fluoro-phenyl)-3,6-dihydro-2H-pyridin-1-yl]-2-oxo-ethyl}-N-pyridin-4-yl-benzamide]
< 0.5 µM | NC(C(=O)N1CCC(c2nc3ccccc3o2)CC1)c1ccc(C(=O)Nc2ccncc2)cc1 (stereo not shown) [Compound 30, 4-[1-amino-2-(4-benzooxazol-2-yl-piperidin-1-yl)-2-oxo-ethyl]-N-pyridin-4-yl-benzamide]
0.5 to 5 µM | NC(C(=O)N1CCC(Cc2ccccc2)CC1)c1ccc(C(=O)Nc2ccncc2)cc1 (stereo not drawn) [Compound 31, 4-[1-amino-2-(4-benzyl-piperidin-l-yl)-2-oxo-ethyl]-N-pyridin-4-yl-benzamide]
0.5 to 5 µM | NC(C(=O)NC1CCCCC1)c1ccc(C(=O)Nc2ccncc2)cc1 (stereo not shown) [Compound 32, 4-(amino-cyclohexylcarbamoyl-methyl)-N-pyridin-4-yl-benzamide]
0.5 to 5 µM | CC1CCC(NC(=O)C(N)c2ccc(C(=O)Nc3ccncc3)cc2)CC1 (stereo not shown) [Compound 33, 4-[amino-(4-methyl-cyclohexylcarbamoyl)-methyl]-N-pyridin-4-yl-benzamide]
< 0.5 µM | NC(C(=O)N1CCOCC1)c1ccc(C(=O)Nc2ccncc2)cc1 (stereo not shown) [Compound 34, 4-(1-amino-2-mopholin-4-yl-2-oxo-ethyl)-N-pyridin-4-yl-benzamide]
0.5 to 5 µM | CC1CN(C(=O)C(N)c2ccc(C(=O)Nc3ccncc3)cc2)CC(C)O1 (stereo not shown) [Compound 35, 4-[1-amino-2-(2,6-dimethyl-mopholin-4-yl)-2-oxo-ethyl]-N-pyridin-4-yl-benzamide]
0.5 to 5 µM | NC(C(=O)N1CCCC(CO)C1)c1ccc(C(=O)Nc2ccncc2)cc1 (stereo not shown) [Compound 36, 4-[1-amino-2-(3-hydroxymethyl-piperidin-1-yl)-2-oxo-ethyl]-N-pyridin-4-yl-benzamide]
0.5 to 5 µM | NC(C(=O)NCC1CCCO1)c1ccc(C(=O)Nc2ccncc2)cc1 (stereo not shown) [Compound 37, 4-{amino-[(tetrahydro-furan-2-ylmethyl)-carbamoyl]-methyl}-N-pyridin-4-yl-benzamide]
0.5 to 5 µM | NC(C(=O)N1CCC(O)(c2ccccc2)CC1)c1ccc(C(=O)Nc2ccncc2)cc1 (stereo not shown) [Compound 38, 4-[1-amino-2-(4-hydroxy-4-phenyl-piperidin-1-yl)-2-oxo-ethyl]-N-pyridin-4-yl-benzamide]
0.5 to 5 µM | COCCNC(=O)C(N)c1ccc(C(=O)Nc2ccncc2)cc1 (stereo not shown) [Compound 39, 4-[amino-(2-methoxy-ethylcarbamoyl)-methyl]-N-pyridin-4-yl-benzamide]
0.5 to 5 µM | CS(=O)(=O)NCCNC(=O)C(N)c1ccc(C(=O)Nc2ccncc2)cc1 (stereo not shown) [Compound 40, 4-[amino-(2-methanesulfonylamino-ethylcarbamoyl)-methyl]-N-pyridin-4-yl-benzamide]
